Assay results taken from US6835398B2, “Method of administering high-dose, oral magnesium for treatment of chronic pain syndrome of erythromelalgia” (priority 2001, dated 2004).
Entries after “also recorded” stand apart in the source; their conditions may differ.

What was measured:
[1] = system: patients with erythromelalgia (EM); test: High-dose oral magnesium therapy in erythromelalgia patients: pain and symptom response; format: in vivo, human; details: for worsening of EM: one patient
From the text: (§1) Thirteen patients took nonprescription magnesium oxide ([…]) or magnesium-protein (Mg-protein) products in gradually escalating and divided doses totaling 0.6-5 grams/day elemental magnesium under their physicians' supervision.
Specifically, it is most important that the magnesium compound (sulfate, oxide, carbonate, etc.) be either very finely divided or dissolved. […] Ideally, dosing should begin at RDA levels and increased as tolerance increases, until pain and/or symptom reduction is achieved. This level can then be maintained longterm. This pain reduction and long term dosing can begin as low as 600 mg elemental Mg/day and may be increased until gastrointestinal distress resulting from administration is consistent. This may occur at a dosage as high as 5 g/day elemental magnesium or even higher. Preferably, at least 1 gm magnesium/day should be administered, more preferably 1.2 gm, more preferably 1.5 gm, still more preferably 2 gm Mg/day. Still more preferably 2.5 gm Mg/day, and most preferably at least 3 gm Mg/day should be administered. To reduce the likelihood of gastrointestinal distress, daily dosages should be divided into several smaller administrations of not more than 500 mg elemental magnesium, preferably not more than 250 mg, and more preferably not more than […] Magnesium per dose. These can be administered several times daily to achieve the correct total daily dose. Small doses taken every 1-2 hours can be used, as can slightly larger doses taken every 4-6 hours. The frequency and size of doses is not as important as the total daily dose, provided the patient can tolerate the regimen.
(§2) Although magnesium's potential benefits for many disorders have been described, patients' lack of tolerance to traditional therapeutic doses has precluded widespread utilization. Indeed, some patients have difficulty tolerating the RDA of magnesium. […] All doses were divided and taken at 4-6 hour intervals with copious amounts of water. All patients had normal renal function, which is required for undertaking magnesium therapy.

subjects = details: 250 mg two times daily, oral, one study; cited from earlier work
[2] = system: patient with CRPS1 / erythromelalgia (EM); test: Case study patient #1 (CRPS1/EM): pain and symptom response; format: in vivo, human
From the text: A magnesium treatment regimen was then investigated.
When the infusions were postponed, small doses of the MgSO4 solution was mixed with water and ingested orally.

[3] = system: patients with erythromelalgia (EM); test: Tolerability of oral magnesium products in patients (diarrhea, adverse effects, achievable dose)
From the text: as §1, §2

For `[Mg+2]` [magnesium], the patients who improved ([1]; 4 of the 6 patients who reached doses above 1 gram/day (1.2 to 7 grams/day)) was 67%, the “patients who obtained benefit” value ([1]; 6 of 8 who reached therapeutic levels, with the two already known cases) was 75% and the “patients who obtained substantial pain reduction and improvement in other symptoms” value ([1]; escalating divided doses totaling 0.6-5 grams/day elemental magnesium, 13 refractory patients) was “eight of these thirteen”. The “worsening of EM” value [1] was “worsened”, the “effectiveness and tolerability compared with nifedipine and/or diltiazem” value ([1]; patients who had previously received nifedipine and/or diltiazem) was “more effective and better tolerated” and the “patients who reported improvement” value ([1]; six of 11 EM patients, after 2 months) was 55%. The “adverse effects in subjects” value (subjects) was 45.7%.

With `O=S(=O)([O-])[O-].[Mg+2]` [MgSO4, magnesium sulfate] the “pain and symptom response” value [2] was “Pain was completely eliminated; also recorded: nearly total remission from EM”, the adverse effects ([3]; patient #1) was “only occasional, mild adverse effects (loose stools, blurred vision)” and the daily dose reached ([3]; patient #1, 50% MgSO4 solution mixed with water, oral, increased very gradually) was 12 grams MgSO4/day. The serum magnesium measurements (patient #1, also two hours after ingesting two grams of MgSO4) was “normal” and the “repeated chemistries and urine studies” value (patient #1, up to 12 grams/day orally) was “normal”.

With `[O]=[Mg]` [magnesium oxide] the “pain and function response” value ([1]; person with CIPD and severe EM, escalating doses to 4-5 grams/day) was “significantly less pain and improved function”, the “pain and flaring response” value ([1]; person with EM, escalating doses to 4-5 grams/day, within two weeks) was “marked reduction in pain and flaring” and the dose reached ([3]; one patient unable to tolerate 2 grams of magnesium tablets, blended in water) was 4.5 grams/day.

In the case of `COc1ccc([C@@H]2Sc3ccccc3N(CCN(C)C)C(=O)[C@@H]2OC(C)=O)cc1` [diltiazem], the “worsening of EM” value [1] is reported as “worsening” and the “pain and symptom response” value [2] is reported as “greater, but still limited, benefit”.
